Read-outs that look alike come from different tables or passages of the source.
Legend:
[1] = test system: TSGH-8301 (Urinary Bladder Carcinoma); assay: Cell viability analysis, bladder cancer TSGH-8301; format: cell-based, human; conditions: Homo sapiens, 72 h
[2] = test system: MCF7 (Mammary Gland, Adenocarcinoma); assay: Cell viability analysis, breast cancer MCF7; format: cell-based, human; conditions: Homo sapiens, MCF7, 72 h
[3] = test system: HCT116 (p53+) (Colorectal Carcinoma)
BxPC-3 = assay: Cell viability analysis, pancreatic cancer BxPC-3; format: cell-based, human; conditions: Homo sapiens, read-out: The results of antibiotic drug inhibiting cancer cell lines (cell viability analysis), BxPC-3
AsPC-1 = assay: Cell viability analysis, pancreatic cancer AsPC-1; format: cell-based, human; conditions: Homo sapiens, ASPC1, 72 h, read-out: The results of antibiotic drug inhibiting cancer cell lines (cell viability analysis), AsPC-1
[4] = test system: Hep3B (hepatocellular carcinoma); assay: Cell viability analysis, hepatic cancer Hep3B; format: cell-based, human; conditions: Homo sapiens, 72 h, Hep3B, read-out: The results of antibiotic drug inhibiting cancer cell lines (cell viability analysis), Hep3B
[5] = test system: HeLa (Cervix Adenocarcinoma); assay: Cell viability analysis, cervical cancer HeLa; format: cell-based, human; conditions: Homo sapiens, HeLa, 72 h, HeLa
[6] = test system: MKN-45 (Gastric Adenocarcinoma); assay: Cell viability analysis, gastric cancer MKN-45; format: cell-based, human; conditions: Homo sapiens, MKN-45, 72 h
U-2OS = assay: Cell viability analysis, osteosarcoma U-2OS; format: cell-based, human; conditions: Homo sapiens, 72 h, U2OS, read-out: The results of antibiotic drug inhibiting cancer cell lines (cell viability analysis), U2OS
NIH: OVCAR-3 = assay: Cell viability analysis, ovarian cancer NIH: OVCAR-3; format: cell-based, human; conditions: Homo sapiens, read-out: The results of antibiotic drug inhibiting cancer cell lines (cell viability analysis), NIH-OVCAR-3
[7] = test system: PC3 (p53−) (Prostate Adenocarcinoma); assay: Cell viability analysis, prostate cancer PC3; format: cell-based, human; conditions: Homo sapiens, 72 h
[8] = test system: SAS (Tongue squamous cell carcinoma); assay: Cell viability analysis, tongue cancer SAS; format: cell-based, human; conditions: Homo sapiens, 72 h, read-out: The results of antibiotic drug inhibiting cancer cell lines (cell viability analysis), SAS
[9] = test system: C-33A (Cervical carcinoma); assay: Cell viability analysis, cervical cancer C-33A; format: cell-based, human; conditions: Homo sapiens, 72 h, read-out: The results of antibiotic drug inhibiting cancer cell lines (cell viability analysis), C-33A
[10] = test system: A549 (Lung Adenocarcinoma); assay: Cell viability analysis, lung cancer A549; format: cell-based, human; conditions: Homo sapiens, A549, 72 h
TOV-21G = assay: Cell viability analysis, ovarian cancer TOV-21G; format: cell-based, human; conditions: Homo sapiens, TOV21G, 72 h, read-out: The results of antibiotic drug inhibiting cancer cell lines (cell viability analysis), TOV-21G
[11] = test system: BCC (basal cell carcinoma); assay: Cell viability analysis, skin cancer BCC; format: cell-based, human; conditions: Homo sapiens, 72 h; BCC; repeated experiment; read-out: The results of antibiotic drug inhibiting cancer cell lines (cell viability analysis), BCC
[12] = test system: A375 (Amelanotic Melanoma); assay: Cell viability analysis, skin cancer A375; format: cell-based, human; conditions: Homo sapiens, A-375, 72 h
[13] = test system: MDA-MB-231 (Mammary Gland, Adenocarcinoma); assay: Cell viability analysis, breast cancer MDA-MB-231; format: cell-based, human; conditions: Homo sapiens, MDA-MB-231, 72 h, read-out: The results of antibiotic drug inhibiting cancer cell lines (cell viability analysis), MDA-MB231
[14] = test system: HI650 (Lung Adenocarcinoma); assay: Cell viability analysis, lung cancer HI650; format: cell-based, human; conditions: Homo sapiens, NCI-H1650, 72 h
[15] = test system: LoVo (Colorectal Adenocarcinoma); assay: Cell viability analysis, colon cancer LoVo; format: cell-based, human; conditions: Homo sapiens, LoVo, 72 h
[16] = test system: HepG2 (Hepatocellular Carcinoma); assay: Cell viability analysis, hepatic cancer HepG2; format: cell-based, human; conditions: Homo sapiens, HepG2, 72 h
[17] = test system: 786-O (Renal adenocarcinoma); assay: Cell viability analysis, renal cancer 786-O; format: cell-based, human; conditions: Homo sapiens, 786-0, 72 h, read-out: The results of antibiotic drug inhibiting cancer cell lines (cell viability analysis), 786-O
T24 = assay: Cell viability analysis, bladder cancer T24; format: cell-based, human; conditions: Homo sapiens, T-24, 72 h, read-out: The results of antibiotic drug inhibiting cancer cell lines (cell viability analysis), T24
[18] = test system: AGS (Gastric Adenocarcinoma); assay: Cell viability analysis, gastric cancer AGS; format: cell-based, human; conditions: Homo sapiens, 72 h
[19] = test system: HL-60 (Acute Promyelocytic Leukemia); assay: Cell viability analysis, leukemia HL-60; format: cell-based, human; conditions: Homo sapiens, HL-60, 72 h, read-out: cell viability (survival rate), HL-60, drug 10 μM, 72 hours, WST-1, OD450 nm
[20] = TSGH-8301, repeated experiment, read-out: The results of antibiotic drug inhibiting cancer cell lines (cell viability analysis), TSGH-8301
[21] = MCF-7, repeated experiment, read-out: The results of antibiotic drug inhibiting cancer cell lines (cell viability analysis), MCF-7
[22] = 72 h, BxPC-3, repeated experiment
[23] = repeated experiment, read-out: The results of antibiotic drug inhibiting cancer cell lines (cell viability analysis), HeLa
[24] = MKN-45, repeated experiment, read-out: The results of antibiotic drug inhibiting cancer cell lines (cell viability analysis), MKN-45
[25] = 72 h, NIH-OVCAR-3, repeated experiment
[26] = PC-3, repeated experiment, read-out: The results of antibiotic drug inhibiting cancer cell lines (cell viability analysis), PC-3
[27] = A375, repeated experiment, read-out: The results of antibiotic drug inhibiting cancer cell lines (cell viability analysis), A375
[28] = H1650, repeated experiment, read-out: The results of antibiotic drug inhibiting cancer cell lines (cell viability analysis), H1650
[29] = read-out: The results of antibiotic drug inhibiting cancer cell lines (cell viability analysis), LoVo, repeated experiment
[30] = HepG2, repeated experiment, read-out: The results of antibiotic drug inhibiting cancer cell lines (cell viability analysis), HepG2
[31] = AGS, repeated experiment, read-out: The results of antibiotic drug inhibiting cancer cell lines (cell viability analysis), AGS

COC(=O)Nc1nc2ccc([S+]([O-])c3ccccc3)cc2[nH]1 (stereo not shown) [Oxfendazole] gave a viability at 10 µM [1, 20] of 67.6%, a viability at 10 µM [2, 21] of 64.6% and a viability [3] of 67.4%. It also gave a viability at 10 µM (BxPC-3; [22]) of 55%, a viability at 10 µM (AsPC-1; AsPC-1, repeated experiment) of 50.9% and a viability at 10 µM ([4]; repeated experiment) of 107%. It also gave a viability at 10 µM [5, 23] of 37%, a viability at 10 µM [6, 24] of 79.9% and a viability at 10 µM (U-2OS; repeated experiment) of 83.4%. The viability at 10 µM (NIH: OVCAR-3; [25]) was 62.2%, the viability at 10 µM [7, 26] was 72.7% and the viability at 10 µM ([8]; SAS, repeated experiment) was 72.3%. For the same molecule, the viability at 10 µM ([9]; C-33A, repeated experiment) was 86.4%, the viability at 10 µM ([10]; A549, repeated experiment, read-out: The results of antibiotic drug inhibiting cancer cell lines (cell viability analysis), A549) was 64.7% and the viability at 10 µM (TOV-21G; TOV-21G, repeated experiment) was 65.1%. It also gave a viability at 10 µM [11] of 55.3%, a viability at 10 µM [12, 27] of 59.7% and a viability at 10 µM ([13]; MDA-MB231, repeated experiment) of 73.9%. For the same molecule, the viability at 10 µM [14, 28] was 64%, the viability at 10 µM [15, 29] was 73.7% and the viability at 10 µM [16, 30] was 99.4%. It also gave a viability at 10 µM ([17]; 786-O, repeated experiment) of 72.3%, a viability at 10 µM (T24; T24, repeated experiment) of 70.2% and a viability at 10 µM [18, 31] of 51.4%.

Work on CC[C@H](C)C(=O)O[C@H]1CCC=C2C=C[C@H](C)[C@H](CC[C@@H]3C[C@@H](O)CC(=O)O3)[C@H]21 [Mevastatin] yielded a viability at 10 µM [1, 20] of 94.4%, a viability at 10 µM [2, 21] of 77.8% and a viability [3] of 73.6%. It also gave a viability at 10 µM (BxPC-3; [22]) of 83.6%, a viability at 10 µM (AsPC-1; AsPC-1, repeated experiment) of 72.3% and a viability at 10 µM ([4]; repeated experiment) of 97.7%. For the same molecule, the viability at 10 µM [5, 23] was 90.5%, the viability at 10 µM [6, 24] was 92.7% and the viability at 10 µM (U-2OS; repeated experiment) was 85.3%. For the same molecule, the viability at 10 µM (NIH: OVCAR-3; [25]) was 100%, the viability at 10 µM [7, 26] was 65.6% and the viability at 10 µM ([8]; SAS, repeated experiment) was 81%. For the same molecule, the viability at 10 µM ([9]; C-33A, repeated experiment) was 102%, the viability at 10 µM (TOV-21G; TOV-21G, repeated experiment) was 44.7% and the viability at 10 µM [11] was 29.8%. The viability at 10 µM [12, 27] was 30.9%, the viability at 10 µM ([13]; MDA-MB231, repeated experiment) was 56.1% and the viability at 10 µM [14, 28] was 69.4%. The viability at 10 µM [15, 29] was 90.5%, the viability at 10 µM [16, 30] was 98.7% and the viability at 10 µM ([17]; 786-O, repeated experiment) was 48%. The viability at 10 µM (T24; T24, repeated experiment) was 67.5% and the viability at 10 µM [18, 31] was 71.2%.

Cc1cc2c(s1)Nc1ccccc1N=C2N1CCN(C)CC1 [Olanzapine (Zyprexa), Olanzapine] gave a viability at 10 µM ([1]; read-out: The results of antibiotic drug inhibiting cancer cell lines (cell viability analysis), TSGH-8301, TSGH-8301, repeated experiment) of 152%, a viability at 10 µM ([1]; read-out: cell viability (survival rate), TSGH, drug 10 μM, 72 hours, WST-1, OD450 nm) of 58.7% and a viability at 10 µM ([2]; read-out: The results of antibiotic drug inhibiting cancer cell lines (cell viability analysis), MCF-7, MCF-7, repeated experiment) of 86.8%. For the same molecule, the viability at 10 µM ([2]; read-out: cell viability (survival rate), MCF7, drug 10 μM, 72 hours, WST-1, OD450 nm) was 125%, the viability [3] was 124% and the viability at 10 µM (BxPC-3; BXPC-3, 72 h) was 65.9%. The viability at 10 µM (AsPC-1) was 84.2%, the viability at 10 µM [4] was 132% and the viability at 10 µM ([5]; read-out: The results of antibiotic drug inhibiting cancer cell lines (cell viability analysis), HeLa, repeated experiment) was 121%. It also gave a viability at 10 µM ([5]; read-out: cell viability (survival rate), HeLa, drug 10 μM, 72 hours, WST-1, OD450 nm) of 106%, a viability at 10 µM ([6]; read-out: The results of antibiotic drug inhibiting cancer cell lines (cell viability analysis), MKN-45, MKN-45, repeated experiment) of 125% and a viability at 10 µM ([6]; read-out: cell viability (survival rate), MKN-45, drug 10 μM, 72 hours, WST-1, OD450 nm) of 80.1%. It also gave a viability at 10 µM (U-2OS) of 66%, a viability at 10 µM (NIH: OVCAR-3; OVCAR-3, 72 h) of 96.8% and a viability at 10 µM ([7]; read-out: The results of antibiotic drug inhibiting cancer cell lines (cell viability analysis), PC-3, PC-3, repeated experiment) of 113%. The viability at 10 µM ([7]; read-out: cell viability (survival rate), PC3, drug 10 μM, 72 hours, WST-1, OD450 nm) was 92.2%, the viability at 10 µM [8] was 59.3% and the viability at 10 µM ([9]; C-33-A) was 98.2%. The viability at 10 µM [19] was 118%, the viability at 10 µM ([10]; read-out: The results of antibiotic drug inhibiting cancer cell lines (cell viability analysis), A549, A549, repeated experiment) was 106% and the viability at 10 µM ([10]; read-out: cell viability (survival rate), A549, drug 10 μM, 72 hours, WST-1, OD450 nm) was 88%. The viability at 10 µM (TOV-21G) was 105%, the viability at 10 µM ([12]; read-out: The results of antibiotic drug inhibiting cancer cell lines (cell viability analysis), A375, A375, repeated experiment) was 98.3% and the viability at 10 µM ([12]; read-out: cell viability (survival rate), A375, drug 10 μM, 72 hours, WST-1, OD450 nm) was 91.9%. It also gave a viability at 10 µM [13] of 111%, a viability at 10 µM ([14]; read-out: The results of antibiotic drug inhibiting cancer cell lines (cell viability analysis), H1650, H1650, repeated experiment) of 107% and a viability at 10 µM ([14]; read-out: cell viability (survival rate), H1650, drug 10 μM, 72 hours, WST-1, OD450 nm) of 109%. It also gave a viability at 10 µM [15, 29] of 81.4%, a viability at 10 µM ([15]; read-out: cell viability (survival rate), LoVo, drug 10 μM, 72 hours, WST-1, OD450 nm) of 88.5% and a viability at 10 µM ([16]; read-out: The results of antibiotic drug inhibiting cancer cell lines (cell viability analysis), HepG2, HepG2, repeated experiment) of 114%. It also gave a viability at 10 µM ([16]; read-out: cell viability (survival rate), HepG2, drug 10 μM, 72 hours, WST-1, OD450 nm) of 93.3%, a viability at 10 µM [17] of 91.8% and a viability at 10 µM (T24) of 110%. For the same molecule, the viability at 10 µM ([18]; read-out: The results of antibiotic drug inhibiting cancer cell lines (cell viability analysis), AGS, repeated experiment) was 122% and the viability at 10 µM ([18]; read-out: cell viability (survival rate), AGS, drug 10 μM, 72 hours, WST-1, OD450 nm) was 84.2%.

Source: patent US10105357B2, “Indication of antibiotic drugs for preparation of cancer inhibition pharmaceutical composition” (LAUNX BIOMEDICAL CO., LTD., priority 2014, dated 2018)
